The TGI is the concentration giving total growth inhibition. A lower TGI goes with more potent growth arrest. For orientation: GI50 means the concentration that inhibits growth by half.

SMILES strings stand for the structures. Several values for one entry are separate records, joined by “and”; a condition that tells them apart may be missing. Equal entries are not always repeated.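 Briefly, cells in 96-well plates were exposed to five compound concentrations for 48 h, and endpoints were estimated by linear interpolation. Abbreviation: GI50, concentration required for 50% inhibition of growth. The concentration for full growth arrest is given as TGI.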 Some results are limits rather than exact numbers.

Among the test systems are HOP-62 NSCLC; KM12 colon; OVCAR-5 ovarian; UACC-62 melanoma; SK-MEL-2 melanoma; BT-549 breast; PC-3 prostate; TK-10 renal; OVCAR-8 ovarian; SNB-19 CNS.
Assay in all cases: DTP human tumour cell line panel, 48 h

Turning to `CC(=O)N1c2ccccc2Sc2cc(C(O)(C(F)(F)F)C(F)(F)F)ccc21`, the TGI with HOP-62 NSCLC, with KM12 colon, with OVCAR-5 ovarian, with UACC-62 melanoma, in the assay on SK-MEL-2 melanoma and in the assay on BT-549 breast was greater than 10 µM throughout. Besides, the TGI with PC-3 prostate, in the assay on TK-10 renal, in the assay on OVCAR-8 ovarian and with SNB-19 CNS was greater than 10 µM in each case.
Take `CC1=Cc2cc3[n-]c(cc4nc(cc5[n-]c(cc1n2)cc5C)C(C)=C4CCC(=O)O)c(CCC(=O)O)c3C.[Pd+2]`: the GI50 in the assay with HOP-62 NSCLC was 17.7 µM; in the assay with KM12 colon, 27 µM; with OVCAR-5 ovarian, 41.6 µM; in the assay on UACC-62 melanoma, 5.29 µM; in the assay with SK-MEL-2 melanoma, 18.7 µM; with BT-549 breast, 4.89 µM. Also, the GI50 in the assay with PC-3 prostate was greater than 100 µM; in the assay on TK-10 renal, 24.9 µM; in the assay with SNB-19 CNS, 9.52 µM. Also, the TGI was 34.3 µM in the assay with HOP-62 NSCLC; 53.3 µM in the assay with KM12 colon; 58.2 µM in the assay with OVCAR-5 ovarian; 34.1 µM in the assay with UACC-62 melanoma; 44 µM in the assay on SK-MEL-2 melanoma; greater than 100 µM with BT-549 breast. Moreover, the TGI with PC-3 prostate is greater than 100 µM; in the assay on TK-10 renal it was 52.9 µM; with SNB-19 CNS, 34.1 µM.
With `O=C1CCC2(C=C(Br)C(=O)C(Br)=C2)O1`, the GI50 in the assay on HOP-62 NSCLC is 20.8 µM; in the assay with KM12 colon, 17.4 µM; in the assay with OVCAR-5 ovarian it was 15 µM; with UACC-62 melanoma it was 14.8 µM; with SK-MEL-2 melanoma, 15 µM; in the assay with BT-549 breast it was 13.6 µM. The GI50 with PC-3 prostate is 15.8 µM; with TK-10 renal it was 2.01 µM; in the assay on OVCAR-8 ovarian, 3.45 µM; in the assay on SNB-19 CNS, 18.5 µM. For the same compound, the TGI stood at 39.8 µM in the assay on HOP-62 NSCLC; 31.3 µM in the assay on KM12 colon; 29.7 µM with OVCAR-5 ovarian; 29 µM in the assay on UACC-62 melanoma; 30.3 µM with SK-MEL-2 melanoma; 26.7 µM in the assay with BT-549 breast. For the same compound, the TGI was 31.3 µM in the assay on PC-3 prostate, 4.14 µM in the assay on TK-10 renal, 11.5 µM in the assay on OVCAR-8 ovarian and 35.6 µM with SNB-19 CNS.
For the compound `N=C(N)CCCCCCCCC(=N)N`, the GI50 in the assay with HOP-62 NSCLC was 30.9 µM; with KM12 colon it was 21.1 µM; with OVCAR-5 ovarian, 26.4 µM; in the assay on UACC-62 melanoma it was 64.8 µM; in the assay with SK-MEL-2 melanoma it was greater than 100 µM; with BT-549 breast, 27.2 µM. For the same compound, the GI50 in the assay on PC-3 prostate was 37 µM; in the assay with TK-10 renal it was 32.2 µM; in the assay on OVCAR-8 ovarian, 10.9 µM; with SNB-19 CNS, 22.5 µM. The TGI with HOP-62 NSCLC, in the assay with KM12 colon, in the assay on OVCAR-5 ovarian, with UACC-62 melanoma, in the assay on SK-MEL-2 melanoma and in the assay with BT-549 breast was greater than 100 µM in each case. Moreover, the TGI in the assay on PC-3 prostate, in the assay with TK-10 renal, in the assay on OVCAR-8 ovarian and in the assay on SNB-19 CNS was greater than 100 µM each time.
Consider `CNC(=O)c1cccc(-c2ccc3c(N4CCOC[C@@H]4C)nc(N4CCOC[C@@H]4C)nc3n2)c1`, for which the GI50 in the assay with HOP-62 NSCLC was 0.153 µM and 0.273 µM and 0.17 µM; with KM12 colon it was 0.0947 µM and 0.273 µM and 0.179 µM; with OVCAR-5 ovarian, 0.0765 µM and 0.122 µM and 0.0739 µM; with UACC-62 melanoma, 0.0393 µM and 0.082 µM and 0.0802 µM; with SK-MEL-2 melanoma it was 0.0889 µM and 0.216 µM and 0.215 µM; with BT-549 breast it was 0.0436 µM and 0.0953 µM and 0.0614 µM. Further, the GI50 is 0.0219 µM and 0.0809 µM and 0.0384 µM in the assay with PC-3 prostate; 0.0616 µM and 0.146 µM and 0.113 µM with TK-10 renal; 0.162 µM and 0.313 µM and 0.164 µM in the assay on OVCAR-8 ovarian; 0.448 µM and 0.29 µM in the assay with SNB-19 CNS. The TGI in the assay on HOP-62 NSCLC is > 100 µM and > 5.18 µM and 10.2 µM; in the assay on KM12 colon, greater than 100 µM; with OVCAR-5 ovarian, 73.7 µM and > 4.52 µM; with UACC-62 melanoma, 0.339 µM and 0.438 µM and 0.452 µM; in the assay with SK-MEL-2 melanoma, 5.47 µM and 1.16 µM and 0.912 µM; in the assay on BT-549 breast, 1.38 µM and 1.08 µM and 0.648 µM. For the same compound, the TGI was 2.25 µM and 1.63 µM and 1.48 µM in the assay with TK-10 renal; 27.7 µM and > 10 µM and 3.42 µM in the assay on OVCAR-8 ovarian; greater than 93.3 µM in the assay with SNB-19 CNS.
For `O=c1cc(-c2ccccc2)nc2n1CCN2Cc1ccccc1`, the GI50 in the assay with HOP-62 NSCLC is 63.8 µM; with KM12 colon, 35.7 µM; in the assay with UACC-62 melanoma, 19.8 µM; in the assay with SK-MEL-2 melanoma, 20.5 µM; in the assay on BT-549 breast, 26.6 µM; in the assay with PC-3 prostate, 32.3 µM. Further, the GI50 with TK-10 renal was 26.5 µM; with OVCAR-8 ovarian, 47.2 µM; with SNB-19 CNS it was 80.9 µM. Also, the TGI in the assay with HOP-62 NSCLC is greater than 100 µM; in the assay with KM12 colon, greater than 100 µM; in the assay on UACC-62 melanoma, 66.7 µM; in the assay with SK-MEL-2 melanoma, 50.5 µM; in the assay on BT-549 breast, 67.2 µM; with PC-3 prostate it was greater than 100 µM. Also, the TGI was 95.7 µM in the assay on TK-10 renal, greater than 100 µM in the assay on OVCAR-8 ovarian and greater than 100 µM in the assay with SNB-19 CNS.
`O=C1c2ccccc2-c2c1c1ccccc1c(=O)n2CCCN1CCOCC1`: the GI50 was 6.22 µM with HOP-62 NSCLC; greater than 100 µM in the assay with KM12 colon; 35.9 µM in the assay on OVCAR-5 ovarian; 5.83 µM in the assay on UACC-62 melanoma; 19.5 µM with SK-MEL-2 melanoma; 8 µM in the assay with BT-549 breast. In addition, the GI50 was 26.2 µM in the assay on PC-3 prostate, 12.1 µM in the assay on TK-10 renal, 7.26 µM with OVCAR-8 ovarian and 14.2 µM with SNB-19 CNS. Besides, the TGI in the assay with HOP-62 NSCLC was 18.7 µM; in the assay on KM12 colon it was greater than 100 µM; with OVCAR-5 ovarian, greater than 100 µM; in the assay with UACC-62 melanoma, 21 µM; with SK-MEL-2 melanoma it was 50.7 µM; with BT-549 breast, 25.5 µM. The TGI in the assay with PC-3 prostate is greater than 100 µM; in the assay on TK-10 renal, 31.9 µM; with OVCAR-8 ovarian, greater than 75.2 µM; in the assay on SNB-19 CNS it was 39.1 µM.
Turning to `CCN(CC)CCCCCCCNc1c2ccc(Cl)cc2nc2ccc(OC)cc12`, the GI50 in the assay on HOP-62 NSCLC is 0.943 µM; in the assay with KM12 colon it was 0.649 µM; in the assay on OVCAR-5 ovarian, 1.78 µM; with UACC-62 melanoma, 2.04 µM; in the assay with SK-MEL-2 melanoma it was 1.56 µM; in the assay with BT-549 breast it was 1.68 µM. Moreover, the GI50 in the assay with PC-3 prostate is 0.843 µM; in the assay on TK-10 renal it was 0.991 µM; in the assay with OVCAR-8 ovarian it was 0.628 µM; in the assay on SNB-19 CNS, 1.75 µM. Further, the TGI with HOP-62 NSCLC is 2.54 µM; in the assay on KM12 colon, 2.17 µM; with OVCAR-5 ovarian, 7.55 µM; with UACC-62 melanoma, 4.09 µM; in the assay with SK-MEL-2 melanoma it was 3.77 µM; in the assay on BT-549 breast it was 3.28 µM. In addition, the TGI in the assay with PC-3 prostate worked out at 2.85 µM; in the assay with TK-10 renal, 4.08 µM; with OVCAR-8 ovarian, 2.9 µM; in the assay on SNB-19 CNS, 5.84 µM.

The values are drawn from PubChem BioAssay (NCI).
